Here are results for 20 compounds from ChEMBL document CHEMBL4725449, “Brain Penetrable Inhibitors of Ceramide Galactosyltransferase for the Treatment of Lysosomal Storage Disorders” (ACS Med Chem Lett, 2020).

pIC50: −log10 of the molar value. Converted amounts (≈) assume the structure as drawn.

In general, pIC50 refers to −log10 of the IC50, conventionally taken in molar units. As a reminder, the logD is lipophilicity at a set pH, counting ionised and neutral species. A higher logD goes with higher lipophilicity. As a reminder, the Papp is the rate of passage across a membrane or cell layer, normalised by area and donor concentration.

Data set [1] concerns the target T1, 2-hydroxyacylsphingosine 1-beta-galactosyltransferase (Homo sapiens, UniProt Q16880).
T1 sequence (Q16880 whole entry): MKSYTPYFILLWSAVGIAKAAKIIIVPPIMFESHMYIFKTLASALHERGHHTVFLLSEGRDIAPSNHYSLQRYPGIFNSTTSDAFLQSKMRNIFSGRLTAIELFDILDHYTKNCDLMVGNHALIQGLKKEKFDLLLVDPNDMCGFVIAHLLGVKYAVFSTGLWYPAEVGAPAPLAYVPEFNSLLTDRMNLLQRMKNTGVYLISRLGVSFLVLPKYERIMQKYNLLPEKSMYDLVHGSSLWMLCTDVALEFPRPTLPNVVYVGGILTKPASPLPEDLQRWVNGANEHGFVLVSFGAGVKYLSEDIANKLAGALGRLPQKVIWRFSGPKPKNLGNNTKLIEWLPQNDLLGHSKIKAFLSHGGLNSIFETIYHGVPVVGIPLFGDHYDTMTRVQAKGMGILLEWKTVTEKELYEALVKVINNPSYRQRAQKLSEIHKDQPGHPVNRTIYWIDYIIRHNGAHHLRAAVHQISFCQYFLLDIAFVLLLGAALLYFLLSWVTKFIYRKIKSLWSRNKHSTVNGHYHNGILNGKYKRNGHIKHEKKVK
Description: Inhibition of UGT8 in human OE19 cells assessed as redcution in SFT accumulation measured after 72 hrs by LC-MS/MS analysis. It counts as cell-based.

Data set [2] has as its target T1, 2-hydroxyacylsphingosine 1-beta-galactosyltransferase. Description: Inhibition of UGT8 in human OE19 cells assessed as redcution in GalCer accumulation measured after 72 hrs by LC-MS/MS analysis. It counts as cell-based.
Data set [3] can be described thus: Drug uptake in C57BL/6 mouse brain at 3 mg/kg, iv measured at 1 hr. It counts as ADME, organism-based. Conditions: read-out: Drug uptake.
Data set [4] in a line: Distribution coefficient, log D of the compound. It counts as physicochemical. The settings on record: octanol/water.
The nature of data set [5]: Drug uptake in C57BL/6 mouse brain at 3 mg/kg, iv measured at 5 mins. The settings on record: read-out: Drug uptake. It counts as ADME, organism-based.
The nature of data set [6]: Intrinsic clearance in human liver microsomes. The settings on record: read-out: CLH. It counts as ADME, Microsome. A general note: Microsomes from liver hold many membrane-bound enzymes, among them those of drug oxidation.
Data set [7] in a line: Apparent permeability of the compound at pH 6.5 to 7.4 by PAMPA. It counts as ADME. Background: PAMPA measures passive passage across an artificial lipid membrane.
Data set [8] in a line: Ratio of drug concentration in brain to plasma in C57BL/6 mouse measured at 5 mins. It counts as ADME, organism-based. The settings on record: read-out: BPR.
Data set [9] is described as follows: Ratio of drug concentration in brain to plasma in C57BL/6 mouse measured at 1 hr. It counts as ADME, organism-based. The settings on record: read-out: BPR.
Data set [10] is described as follows: Thermodynamic solubility of the compound […] at pH 7.4. It counts as physicochemical. The settings on record: read-out: Therm_solubility.

As for `CNC(=O)c1csc2c(C(F)(F)F)cc(N3CC(NC(=O)OCC4CC4)C3)nc12`, the figures for the pIC50 in data set [1] and in [2] were 7.32 and 7.37, respectively.
For `CNC(=O)c1csc2c(C(F)(F)F)cc(N3CCN(CC(=O)C(C)(C)C)CC3)nc12`, in [3], the concentration at 1 h came to 170 ng/mL. The logD in [4] is 3.3. Besides, the concentration at 5 min in data set [5] was 1100 ng/mL. Moreover, in [6], the microsomal CLint was determined as 5 µL/min/mg. The pIC50 in data set [1] is 6.21; in data set [2], 5.85. Further, in data set [7], the Papp was greater than 80 ×10⁻⁶ cm/s. In data set [8], the Kp at 5 min came out at 0.81. For the same compound, the Kp at 1 h in [9] was determined as 0.54.
With `CNC(=O)c1csc2c(C(F)(F)F)cc(N3CCC(OC(=O)NCCOC(F)(F)F)CC3)nc12`, the concentration at 1 h in data set [3] stood at 128 ng/mL. In data set [4], this compound had a logD of 4.7. Moreover, the solubility thermodynamic in data set [10] was less than 0.5 µM. Moreover, the concentration at 5 min in data set [5] worked out at 1640 ng/mL. Besides, the pIC50 is 9.40 in data set [1] and 9.22 in data set [2]. Further, the Kp at 5 min in data set [8] was determined as 0.59. Besides, the Kp at 1 h in [9] stood at 0.24.
Regarding `CNC(=O)c1csc2c(C(F)(F)F)cc(N3CCC(NC(=O)OCC4CC4)CC3)nc12`, the pIC50 in data set [1] was 7.74; in [2] it was 7.43.
Take `CNC(=O)c1csc2c(C(F)(F)F)cc(N3CCC(OC(=O)NCC4CC4)C3)nc12` (stereo not drawn): the pIC50 in [1] was 6.21.
In turn, `CNC(=O)c1csc2c(C(F)(F)F)cc(N3CCN(C(C)C(=O)NC4CC4)CC3)nc12` (stereo not drawn) returned a logD in [4] of 3.3. Besides, the concentration at 5 min in data set [5] was found to be 43 ng/mL. In data set [6], the microsomal CLint stood at 34 µL/min/mg. Moreover, the results for the pIC50 in data set [1] and in data set [2] were 6.77 and 6.44, respectively. The Papp in data set [7] worked out at 75 ×10⁻⁶ cm/s. In addition, in [8], the Kp at 5 min was determined as 0.01.
Turning to `CNC(=O)c1csc2c(C(F)(F)F)cc(N3CCC(OC(=O)NC(C)C)CC3)nc12`, the concentration at 1 h in [3] turned out to be 302 ng/mL. For the same compound, in data set [4], the logD turned out to be 4.35. Moreover, the concentration at 5 min in data set [5] came out at 2700 ng/mL. For the same compound, in [6], the microsomal CLint stood at 46 µL/min/mg. The pIC50 in [1] and in data set [2] was 8.70 throughout. In [7], the Papp is greater than 80 ×10⁻⁶ cm/s. Besides, the Kp at 5 min in [8] was found to be 1.88. The Kp at 1 h in data set [9] worked out at 1.03.
Regarding `CNC(=O)c1csc2c(C(F)(F)F)cc(N3CCC(OC(=O)N4CC(CN(C)C)C4)CC3)nc12`, the solubility thermodynamic in data set [10] is 420 µM (≈ 210 µg/mL). Further, the pIC50 in data set [1] is 6.01.
Consider `CNC(=O)c1csc2c(C(F)(F)F)cc(N3CCC(OC(=O)N4CC(OC(F)(F)F)C4)CC3)nc12`, for which the concentration at 1 h in data set [3] was determined as 316 ng/mL. Further, in data set [4], the logD was 5.13. Also, the solubility thermodynamic in data set [10] was less than 0.5 µM. The concentration at 5 min in data set [5] was found to be 3430 ng/mL. The microsomal CLint in data set [6] was determined as 41 µL/min/mg. In addition, the figures for the pIC50 in data set [1] and in data set [2] were 8.77 and 8.54, respectively. Besides, in data set [7], the Papp is greater than 80 ×10⁻⁶ cm/s. Moreover, the Kp at 5 min in data set [8] was 1.67. Also, the Kp at 1 h in [9] is 0.59.
On to `CNC(=O)c1csc2c(C(F)(F)F)cc(N3CCN(CC(=O)NC(C)C)CC3)nc12`, for which the pIC50 in data set [1] is 7.17; in data set [2] it was 7.05.
Compound `CC(C)NC(=O)CN1CCN(c2cc(C(F)(F)F)c3scc(C(=O)N4CCC4)c3n2)CC1` displayed a logD in data set [4] of 2.7. Besides, the microsomal CLint in data set [6] came to 27 µL/min/mg. Also, the values for the pIC50 in data set [1] and in data set [2] were 6.19 and 6.49, respectively. The Papp in [7] was found to be 66 ×10⁻⁶ cm/s.
As for `CNC(=O)c1csc2c(C(F)(F)F)cc(N3CCN(CCOC(C)C)CC3)nc12`, the concentration at 1 h in [3] came out at 1700 ng/mL. In data set [4], this compound gave a logD of 3.6. Further, in data set [5], the concentration at 5 min is 3000 ng/mL. Further, the microsomal CLint in [6] is 96 µL/min/mg. The results for the pIC50 in data set [1] and in [2] were 6.48 and 6.70, respectively. Further, in data set [7], the Papp is greater than 80 ×10⁻⁶ cm/s. The Kp at 5 min in data set [8] is 1.8. Also, the Kp at 1 h in data set [9] worked out at 1.
As to `CC[C@H](C)NC(=O)OC1CCN(c2cc(C(F)(F)F)c3scc(C(=O)NC)c3n2)CC1`, in data set [3], the concentration at 1 h amounted to 192 ng/mL. Besides, the logD in [4] stood at 4.56. The solubility thermodynamic in data set [10] is less than 0.5 µM. Also, in [5], the concentration at 5 min was found to be 2370 ng/mL. For the same compound, the pIC50 in [1] is 9.05; in data set [2], 9.40. For the same compound, the Kp at 5 min in data set [8] was found to be 1.45. In addition, the Kp at 1 h in data set [9] came out at 0.76.
In the case of `CNC(=O)c1csc2c(C(F)(F)F)cc(N3CCC(OC(=O)N[C@@H](C)C4CC4)CC3)nc12`, the concentration at 1 h in [3] was 143 ng/mL. Moreover, the logD in data set [4] came out at 4.29. Besides, in [10], the solubility thermodynamic was less than 0.5 µM. In addition, the concentration at 5 min in data set [5] turned out to be 1480 ng/mL. Also, the microsomal CLint in data set [6] came out at 70 µL/min/mg. For the same compound, the pIC50 was 9.05 in [1] and 8.96 in [2]. In addition, the Papp in data set [7] is greater than 80 ×10⁻⁶ cm/s. The Kp at 5 min in data set [8] was 0.76. For the same compound, the Kp at 1 h in [9] stood at 0.42.
For the compound `CCC(=O)c1csc2c(C(F)(F)F)cc(N3CCN(CC(=O)NC(C)C)CC3)nc12`, the concentration at 1 h in data set [3] was found to be 270 ng/mL. Moreover, the logD in data set [4] worked out at 3.6. For the same compound, in data set [5], the concentration at 5 min was 1400 ng/mL. Moreover, the microsomal CLint in data set [6] was determined as 36 µL/min/mg. The pIC50 in data set [1] is 7.01; in data set [2] it was 6.92. The Papp in data set [7] is greater than 80 ×10⁻⁶ cm/s. In addition, the Kp at 5 min in [8] is 0.83. The Kp at 1 h in data set [9] worked out at 0.72.
For the compound `CNC(=O)c1csc2c(C(F)(F)F)cc(N3CCN(C(=O)COC(C)C)CC3)nc12`, in data set [3], the concentration at 1 h is 8 ng/mL. Also, the logD in data set [4] is 3.1. In data set [5], the concentration at 5 min was 228 ng/mL. In [6], the microsomal CLint worked out at 42 µL/min/mg. For the same compound, the values for the pIC50 in data set [1] and in [2] were 6.18 and 6.35, respectively. Further, the Papp in [7] worked out at 69 ×10⁻⁶ cm/s. The Kp at 5 min in [8] was found to be 0.07. For the same compound, in [9], the Kp at 1 h stood at 0.06.
`CNC(=O)c1csc2c(C(F)(F)F)cc(N3CC(OC(=O)NCC4CC4)C3)nc12`: the pIC50 in data set [1] is 6.70.
As for `CNC(=O)c1csc2c(C(F)(F)F)cc(N3CCC(OC(=O)NCCN4CCCC4)CC3)nc12`, the solubility thermodynamic in [10] worked out at 430 µM (≈ 215 µg/mL). In addition, the pIC50 in data set [1] was 6.29.
On to `CNC(=O)c1csc2c(C(F)(F)F)cc(N3CCN(CC(O)COC(C)(C)C)CC3)nc12` (stereo not drawn), for which the concentration at 1 h in data set [3] was 210 ng/mL. Moreover, in [4], the logD was 3.7. Further, in [5], the concentration at 5 min stood at 1700 ng/mL. Further, in data set [6], the microsomal CLint is 51 µL/min/mg. Besides, the pIC50 in data set [1] is 6.72; in data set [2], 6.46. Further, in [7], the Papp stood at 78 ×10⁻⁶ cm/s. The Kp at 5 min in data set [8] was 0.93. Besides, the Kp at 1 h in [9] was determined as 0.35.
Take `CNC(=O)c1csc2c(C(F)(F)F)cc(N3CCC(OC(=O)NCC4CC4)CC3)nc12`: the concentration at 1 h in [3] amounted to 132 ng/mL. This compound came in with a logD in data set [4] of 4.2. The concentration at 5 min in data set [5] came to 2140 ng/mL. For the same compound, in [6], the microsomal CLint amounted to 59 µL/min/mg. The pIC50 was 9.00 in data set [1] and 8.52 in [2]. In addition, the Papp in data set [7] is greater than 80 ×10⁻⁶ cm/s. Also, the Kp at 5 min in data set [8] was found to be 0.91. Further, the Kp at 1 h in data set [9] was 0.31.
